Experimental data as given in US7067545B1, “Remedies for spinocerebellar ataxia and compositions for treating spinocerebellar ataxia” (Meiji Seika Kaisha Ltd., priority 1998, dated 2006).
Like-named read-outs stand apart in the source and are kept apart here.

Tests used:
drug induced ataxia mice = assay: Effect on drug induced (cytosine arabinoside) ataxia mice, open-field test; assay type: in vivo; settings: for Falling Index (falling score/movement score) / Movement Score: 30 min after administration, observed 30 min, mean ± standard error
Procedure: Ataxia mice prepared by repeated administration of cytosine arabinoside 50 mg/kg into male mice, 1, 2 and 3-day old, respectively, were used at 6-7-week old in the experiments (Simada, M. et al. Arch. Neurol., 32, 555-559, 1975 and Matsui, K. et al. Exp. Anim., 32, 13-19, 1983).
Improving effects of drugs on ataxia were evaluated according to the methods of Yamamoto et al. (Yamamoto and Shimizu, Eur. J. Pharmacol. 1.66, 295-297, 1989) and Matsui et al. (Matsui et al. Eur. J. Pharmacol., 254, 295-297, 1994; Neurosci. Lett., 212, 115-118, 1996) as follows.
(§1) The open-field apparatus with a 70 cm square filed surrounded by a 15 cm high wall was used. The floor of the field was marked out into 49 equal grids (each grid 10 cm×10 cm). At 30 minutes after administration of drug intraperitoneally into mice, each mouse was placed in the field and was monitored for behavior for 30 minutes. Observed items were as follows. Numbers of crossing lines of the grids by mouse were set as “movement score” and numbers of slipping the hindlimbs were set as “falling score”. Each score was measured simultaneously. Ratio of both scores (falling score/movement score) is expressed as “falling index”.
Drugs used were D-serine ethyl ester, 10, 50 and 250 mg/kg, respectively, D-cycloserine, 2, 10 and 50 mg/kg, respectively, and L-serine ethyl ester, 250 mg/kg. Physiological saline was used as control. Each drug and saline were administered intraperitoneally.

[1] = mouse, in vivo, cited from earlier work
[2] = system: genetic mutant ataxia mice, reeler mice; assay: Effect on genetic mutant ataxia mice (reeler mice), open-field test; assay type: in vivo; settings: 250 mg/kg i.p., mean ± standard error
Procedure: as §1
Genetic mutant ataxia mice, reeler mice (Heckroth, J. A. et al. J. Comp. Neurol., 279, 546-555, 1989 and Hamburgh, Dev. Biol., 8, 165-185, 1963) were purchased from Jackson Laboratory (Bar Harbor, Me., USA). Homozygotes were obtained by mating of heterozygote pairs. The homozygote male mice, 6-7 weeks old, were used for the experiments.
Experimental method for evaluation of ataxia was performed as same as in example 1. In the drug administered group, D-serine ethyl ester 250 mg/kg was administered intraperitoneally. For control group, physiological saline was administered.

[3] = 10 mg/kg i.p., listed as D-Cycloserine
[4] = 50 mg/kg i.p., listed as D-Cycloserine
[5] = 50 mg/kg i.p., listed as D-Serine Ethyl ester
[6] = 250 mg/kg i.p., listed as D-Serine Ethyl ester

Structure (SMILES): N[C@@H]1CON=C1O [D-cycloserine]
- Falling Index (falling score/movement score) (drug induced ataxia mice; 2 mg/kg i.p.): 0.80 ± 0.07
- Movement Score (drug induced ataxia mice; 2 mg/kg i.p.): 117 ± 54
- Falling Index (falling score/movement score) (drug induced ataxia mice; 10 mg/kg i.p.): Significant decrease
- Movement Score (drug induced ataxia mice; 10 mg/kg i.p.): no significant effect
- Falling Index (falling score/movement score) (drug induced ataxia mice; [3]): 0.69 ± 0.09
- Movement Score (drug induced ataxia mice; [3]): 194 ± 71
- Falling Index (falling score/movement score) (drug induced ataxia mice; 50 mg/kg i.p.): Significant decrease
- Movement Score (drug induced ataxia mice; 50 mg/kg i.p.): no significant effect
- Falling Index (falling score/movement score) (drug induced ataxia mice; [4]): 0.62 ± 0.04
- Movement Score (drug induced ataxia mice; [4]): 286 ± 98
- improved action on ataxia (drug induced ataxia mice; below 50 mg/kg (i.p.) in mice): dose dependent manner
- LD50 ([1]; ip): approx. 2,900 mg/kg
- LD50 ([1]; iv): approx. 1,800 mg/kg
- LD50 ([1]; po): approx. 5,300 mg/kg
- LD50 ([1]; sc): approx. 2,800 mg/kg

Structure (SMILES): CCOC(=O)[C@@H](N)CO [L-serine ethyl ester]
- Falling Index (falling score/movement score) (drug induced ataxia mice; 250 mg/kg i.p.): No improved action on ataxia
- Movement Score (drug induced ataxia mice; 250 mg/kg i.p.): 129 ± 27
- Falling Index (falling score/movement score) (drug induced ataxia mice; 250 mg/kg i.p., listed as L-Serine Ethyl ester): 0.80 ± 0.06

Structure (SMILES): CCOC(=O)[C@H](N)CO [D-serine ethyl ester]
- Falling Index (falling score/movement score) (drug induced ataxia mice; 10 mg/kg i.p.): 0.88 ± 0.09
- Movement Score (drug induced ataxia mice; 10 mg/kg i.p.): 386 ± 113
- Falling Index (falling score/movement score) (drug induced ataxia mice; 50 mg/kg i.p.): Significant decrease
- Movement Score (drug induced ataxia mice; 50 mg/kg i.p.): no significant effect
- Falling Index (falling score/movement score) (drug induced ataxia mice; [5]): 0.66 ± 0.08
- Movement Score (drug induced ataxia mice; [5]): 366 ± 96
- Falling Index (falling score/movement score) (drug induced ataxia mice; 250 mg/kg i.p.): Significant decrease
- Movement Score (drug induced ataxia mice; 250 mg/kg i.p.): no significant effect
- Falling Index (falling score/movement score) (drug induced ataxia mice; [6]): 0.56 ± 0.06
- Movement Score (drug induced ataxia mice; [6]): 412 ± 99
- Falling Index (falling score/movement score) [2]: Improved effect on ataxia
- Movement Score [2]: No effect
- Falling Index (falling score/movement score) ([2]; listed as D-Serine Ethyl ester): 0.24 ± 0.05
- Movement Score ([2]; listed as D-Serine Ethyl ester): 232 ± 66
